Results from US7432392B2, “Ester derivatives and medical use thereof” (Japan Tobacco Inc., priority 2003, dated 2008).

Tests used:
[1] = Metabolic stability test in liver S9 (hamster); format: in vitro ADME; settings: Hamster liver S9, 2 mg protein/mL, 37° C.
Description: (§1) Human and hamster liver S9 (final concentration: 2 mg protein/mL), and human and hamster small intestine S9 (final concentration: 2 mg protein/mL) were each suspended in 100 mM potassium phosphate buffer (pH 7.4, containing β-nicotinamide adenine dinucleotide phosphate: 1.3 mM, D-glucose-6-phosphate: 3.3 mM, magnesium chloride: 3.3 mM, and glucose-6-phosphate dehydrogenase: 0.4 U/mL). The suspensions were mixed with a solution of a sample (Example 1) in DMSO. The solutions were incubated at 37° C. for 0, 10 and 60 minutes, and an organic solvent was added thereto. The solutions were centrifuged, and the concentration of the sample (unchanged form) in the supernatant was determined by high performance liquid chromatography/mass spectrometry (LC/MS). Based on the data obtained, remaining rate (%) was calculated according to the following equation. Remaining rate(%)=amount of sample 10 or 60 minutes after incubation/amount of sample at zero time after incubation×100

[2] = Metabolic stability test in small intestine S9 (human); format: in vitro ADME; settings: Human small intestine S9, 2 mg protein/mL, 37° C.
Description: as §1

[3] = biological target: T1, Microsomal triglyceride transfer protein (MTP) from bovine liver (Bos taurus, UniProt P55156); assay: Inhibition of interliposomal triglyceride (TG) transfer activity by MTP; format: biochemical; settings: MTP-mediated TG transfer between donor and acceptor liposomes, 37° C., one hour
T1 construct: the purified MTP was used for the test; from tissue; host or cells: bovine liver
T1 sequence (P55156 12-887): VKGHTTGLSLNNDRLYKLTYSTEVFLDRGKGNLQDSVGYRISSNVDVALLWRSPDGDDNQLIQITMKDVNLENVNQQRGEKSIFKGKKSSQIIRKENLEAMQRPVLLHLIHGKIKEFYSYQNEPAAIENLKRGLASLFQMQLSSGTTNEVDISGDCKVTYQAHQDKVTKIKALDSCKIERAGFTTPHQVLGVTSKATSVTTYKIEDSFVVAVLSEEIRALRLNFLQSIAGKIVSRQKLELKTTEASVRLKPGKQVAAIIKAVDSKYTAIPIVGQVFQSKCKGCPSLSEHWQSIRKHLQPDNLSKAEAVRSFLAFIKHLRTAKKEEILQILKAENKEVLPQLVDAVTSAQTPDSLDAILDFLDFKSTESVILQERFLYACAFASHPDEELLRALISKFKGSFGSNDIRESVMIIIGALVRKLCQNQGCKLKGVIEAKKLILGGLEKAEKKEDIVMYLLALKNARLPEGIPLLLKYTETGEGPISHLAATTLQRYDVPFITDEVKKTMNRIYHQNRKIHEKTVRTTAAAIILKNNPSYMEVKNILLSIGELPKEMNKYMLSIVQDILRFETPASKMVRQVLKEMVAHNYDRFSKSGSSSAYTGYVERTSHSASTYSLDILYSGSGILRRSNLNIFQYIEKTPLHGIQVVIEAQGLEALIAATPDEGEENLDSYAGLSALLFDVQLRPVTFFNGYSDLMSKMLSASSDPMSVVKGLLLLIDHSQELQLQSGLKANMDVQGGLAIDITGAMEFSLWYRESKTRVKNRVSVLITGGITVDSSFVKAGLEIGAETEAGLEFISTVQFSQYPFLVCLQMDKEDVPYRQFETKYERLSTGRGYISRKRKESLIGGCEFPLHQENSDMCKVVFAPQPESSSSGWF
T1 sequence (P05307 21-510 partner): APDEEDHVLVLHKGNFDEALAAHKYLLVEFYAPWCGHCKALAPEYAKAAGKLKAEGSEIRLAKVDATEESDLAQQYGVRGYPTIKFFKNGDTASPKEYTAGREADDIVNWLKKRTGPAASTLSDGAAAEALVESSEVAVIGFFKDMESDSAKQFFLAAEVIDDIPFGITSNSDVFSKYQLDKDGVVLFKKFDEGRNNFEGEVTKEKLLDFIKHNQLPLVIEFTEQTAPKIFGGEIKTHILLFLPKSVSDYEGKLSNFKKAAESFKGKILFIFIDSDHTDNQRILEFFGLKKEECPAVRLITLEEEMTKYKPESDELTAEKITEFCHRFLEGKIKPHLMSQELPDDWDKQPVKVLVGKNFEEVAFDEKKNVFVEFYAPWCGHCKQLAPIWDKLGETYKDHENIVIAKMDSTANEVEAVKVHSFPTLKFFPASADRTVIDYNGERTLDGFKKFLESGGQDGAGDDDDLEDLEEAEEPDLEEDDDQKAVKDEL
Outline: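 Partially purified bovine liver MTP (DEAE chromatography) was incubated 1 h at 37° C with ^14C-triolein donor SUV liposomes and unlabeled acceptor liposomes in pH 7.4 Tris buffer with 0.5% BSA. Donor was removed with DEAE cellulose and acceptor radioactivity counted. IC50 came from blank-corrected inhibition relative to DMSO.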

## CCOC(=O)C(COC(=O)Cc1ccc(NC(=O)c2ccccc2-c2ccc(C(F)(F)F)cc2)c(OC(C)=O)c1)(C(=O)OCC)c1ccccc1 [Example 1, 2-(2-{3-acetoxy-4-[(4′-trifluoromethyl-biphenyl-2-carbonyl)amino]phenyl}acetoxymethyl)-2-phenylmalonic acid diethyl ester]
[1]; 10 minutes
  Remaining rate (%) after 10 minutes: 1.6%
[1]; 60 minutes
  Remaining rate (%) after 60 minutes: 0.0%
[2]; 10 minutes
  Remaining rate (%) after 10 minutes: 7.5%
[2]; 60 minutes
  Remaining rate (%) after 60 minutes: 1.1%
[3]
  IC50: < 0.01 µM
